Read-outs that look alike come from different tables or passages of the source.
Experiments:
[1] = system: MCF-7 cells; experiment: cell cytotoxic effects against MCF-7 cells (72 h), A490; assay type: cell-based, human
[2] = cytotoxicity in Drosophila DL1 cells; assay type: cell-based; conditions: Drosophila, DL1 cells (embryonic macrophage-derived), DL1 cells
Method: (§1) We screened the DDPs on the Drosophila assay system for cytotoxicity, inhibitory activity of innate immune signalling and insecticidal activity. The cytotoxicity of the DDPs was evaluated using two cell lines, embryonic macrophage-derived DL1 cells[58]–[60] and larval blood cell-derived l(2)mbn cells, and their IC50 values are listed in Supplementary Table 23.

[3] = system: DL1 cells; experiment: cytotoxicity in Drosophila DL1 cells; assay type: cell-based; conditions: DL1 cells; for IC50: Drosophila melanogaster, cytotoxicity
Method: as §1

[4] = cytotoxicity in Drosophila l(2)mbn cells; assay type: cell-based; conditions: Drosophila, l(2)mbn cells (larval blood cell-derived)
Method: as §1

[5] = system: l(2)mbn cells; experiment: cytotoxicity in Drosophila l(2)mbn cells; assay type: cell-based; conditions: for Luminescence Raw1: replicate 1; for Luminescence Raw2: replicate 2; for IC50: Drosophila melanogaster, cytotoxicity
Method: as §1

[6] = system: human immunodeficiency virus-1 (HIV-1); experiment: anti-HIV MAGI assay; assay type: cell-based; conditions: Human immunodeficiency virus 1, MAGI, anti-HIV; average of numeric determinations; read-out: Avg. EC50
Text: We examined the inhibitory activities of DDPs against various species of bacteria (both gram-negative and gram-positive bacteria), fungi and viruses. […] In contrast, preliminary screening of the DDPs for anti-viral agents with hepatitis B virus (HBV), measles virus (MV), Epstein-Barr virus (EBV), herpes simplex virus (HSV) and human immunodeficiency virus-1 (HIV-1) indicated their selective inhibition of HIV.

[7] = system: MAGI cells; experiment: cytotoxicity in the anti-HIV assay (CC50); assay type: cell-based; conditions: single determinations
[8] = replicate 1, relative to DMSO 1%, read-out: % viability, viability 1
[9] = replicate 2, relative to DMSO 1%, read-out: % viability, viability 2
[10] = average of two replicates, read-out: IC50 Average
[11] = replicate 1, read-out: IC50 (1)
[12] = replicate 2, read-out: IC50 (2)

SMILES: C=C1CC[C@@H]2[C@](C)(CC[C@H]3O[C@H](C=C(C)C)C[C@@]23C)[C@@H]1Cc1c(OC)oc(CO)c(C)c1=O [Compound 20]
- cytotoxicity against the bulk of MCF-7 cells [1]: dose-dependent cytotoxicity
- viability at 0.1 µM ([1]; Homo sapiens, MCF7, 72 h, MCF-7, 72 h, 0.1 µM (DMSO 0.002%), read-out: A490 (control =1) ave): 90%
- viability at 1 µM ([1]; Homo sapiens, MCF7, 72 h, MCF-7, 72 h, 1 µM (DMSO 0.02%), read-out: A490 (control =1) ave): 45.3%
- viability at 10 µM ([1]; Homo sapiens, MCF7, 72 h, MCF-7, 72 h, 10 µM (DMSO 0.2%), read-out: A490 (control =1) ave): 29.4%
- A490 ave ([1]; MCF-7, 72 h, 0.1 µM (DMSO 0.002%), control 1.064): 0.958
- A490 ave ([1]; MCF-7, 72 h, 1 µM (DMSO 0.02%), control 1.104): 0.500
- A490 ave ([1]; MCF-7, 72 h, 10 µM (DMSO 0.2%), control 1.049): 0.308
- viability at 0.04 µM [2, 8]: 191%
- viability at 0.04 µM [2, 9]: 209%
- viability at 0.2 µM [2, 8]: 171%
- viability at 0.2 µM [2, 9]: 166%
- viability at 1 µM [2, 8]: 20.6%
- viability at 1 µM [2, 9]: 19.9%
- viability at 4 µM [2, 8]: 20.4%
- viability at 4 µM [2, 9]: 21.2%
- viability at 10 µM [2, 8]: 20.5%
- viability at 10 µM [2, 9]: 19.2%
- viability at 20 µM [2, 8]: 20.5%
- viability at 20 µM [2, 9]: 24.6%
- Luminescence Raw1 ([3]; 0.04 µM, replicate 1): 2619350
- Luminescence Raw2 ([3]; 0.04 µM, replicate 2): 2864984
- Luminescence Raw1 ([3]; 0.2 µM, replicate 1): 2345231
- Luminescence Raw2 ([3]; 0.2 µM, replicate 2): 2278506
- Luminescence Raw1 ([3]; 1 µM, replicate 1): 282109
- Luminescence Raw2 ([3]; 1 µM, replicate 2): 273095
- Luminescence Raw1 ([3]; 4 µM, replicate 1): 279585
- Luminescence Raw2 ([3]; 4 µM, replicate 2): 290402
- Luminescence Raw1 ([3]; 10 µM, replicate 1): 280667
- Luminescence Raw2 ([3]; 10 µM, replicate 2): 263720
- Luminescence Raw1 ([3]; 20 µM, replicate 1): 281027
- Luminescence Raw2 ([3]; 20 µM, replicate 2): 336916
- IC50 [3, 10]: 269 nM
- IC50 ([3]; average±SEM, read-out: IC50): 270 ± 30 nM
- IC50 [3, 11]: 299 nM
- IC50 [3, 12]: 238 nM
- viability at 0.04 µM [4, 8]: 95.7%
- viability at 0.04 µM [4, 9]: 102%
- viability at 0.2 µM [4, 8]: 106%
- viability at 0.2 µM [4, 9]: 112%
- viability at 1 µM [4, 8]: 71.1%
- viability at 1 µM [4, 9]: 80.9%
- viability at 4 µM [4, 8]: 1.55%
- viability at 4 µM [4, 9]: 2.17%
- viability at 10 µM [4, 8]: 1.88%
- viability at 10 µM [4, 9]: 1.76%
- viability at 20 µM [4, 8]: 1.4%
- viability at 20 µM [4, 9]: 2.05%
- Luminescence Raw1 ([5]; 0.04 µM): 6010744
- Luminescence Raw2 ([5]; 0.04 µM): 6416731
- Luminescence Raw1 ([5]; 0.2 µM): 6637959
- Luminescence Raw2 ([5]; 0.2 µM): 7047592
- Luminescence Raw1 ([5]; 1 µM): 4464964
- Luminescence Raw2 ([5]; 1 µM): 5080853
- Luminescence Raw1 ([5]; 4 µM): 97218
- Luminescence Raw2 ([5]; 4 µM): 136159
- Luminescence Raw1 ([5]; 10 µM): 118130
- Luminescence Raw2 ([5]; 10 µM): 110559
- Luminescence Raw1 ([5]; 20 µM): 87844
- Luminescence Raw2 ([5]; 20 µM): 128947
- IC50 [5, 10]: 1450 nM
- IC50 ([5]; average±SEM, read-out: IC50): 1450 ± 130 nM
- IC50 [5, 11]: 1320 nM
- IC50 [5, 12]: 1580 nM
- EC50 [6]: 4.07 µM
- Cytotoxicity [7]: >10 µM

— paper PMC7156458, “Synthetic biology based construction of biological activity-related library of fungal decalin-containing diterpenoid pyrones” (Nature Communications, 2020)
